{
  "source": "patent US11745181B2",
  "about": "“Devices and methods for bioassay” (Unchained Labs, priority 2017, dated 2023)",
  "key": {"[1]": {"test_system": "zebrafish embryos Tg(fli1:EGFP)", "assay": "Heart rate measurement of zebrafish embryos/larvae in the μZMount fluidic device", "format": "in vivo", "conditions": "0.1 μM, 1 μM, or 5 μM for 48 or 96 hours; compared with published literature", "protocol": "Each different drug treatment was replenished every 24 hours, effectively dosing the zebrafish at 24, 48, 72, and 96 hours post initial drug treatment. The drug was added in a manner similar to replenishing the media. At 4 dpf, each larvae was moved into its respective second bioassay region by adding 10 μl of media to the sample chamber and aspirated out quickly from the first outlet. The yolk of the zebrafish at this age has depleted enough to allow the fish to flow into the second bioassay region.\nHeart rate was measured for no less than five embryos per treatment at 48 hours post fertilization (hpf) and 96 hpf. Of the heart rates measured, three of them were recorded using video image capturing techniques for future evaluation. The heart rates were measured by visually inspecting the heart beat and counting the number of beats in 15 seconds and then multiplying by 4."}, "[2]": {"test_system": "zebrafish larvae Tg(fli1:EGFP)", "assay": "High-resolution fluorescence-microscopy imaging of vessel sprouting and morphology in zebrafish larvae", "format": "in vivo", "conditions": "0.1 μM, 1 μM, or 5 μM, replenished every 24 hours", "description": "In this example, green fluorescent zebrafish embryos were loaded into the fluidic chambers of μZMount, a non-limiting exemplary fluidic device with the structure provided in FIGS. 1-2 herein and dimensions that were within 5% of the target dimensions as provided herein with reference to the illustrative embodiment provided in FIGS. 1-2, and that includes a plurality of fluidic chambers having the features and within 5% of the target dimensions provided herein for the illustrative embodiment of FIGS. 2A-2B. […] These zebrafish were Tg(fli1:EGFP) and expressed enhanced GFP under the control of the fli1 promoter such that the entire vasculature fluoresces. The zebrafish embryos and larvae that developed therefrom, were visualized with high-resolution fluorescent microscopy.\nEach different drug treatment was replenished every 24 hours, effectively dosing the zebrafish at 24, 48, 72, and 96 hours post initial drug treatment. The drug was added in a manner similar to replenishing the media. […]\nEmbryos were imaged at various time points while within the fluidic device, up to 5 dpf, using high-resolution fluorescence-microscopy. […]\nDrug-mediated inhibition of intersegmental and subintestinal vessels sprouting was recorded using high-resolution fluorescence-microscopy."}},
  "data": [
    {"smiles": "Cc1cc(C)c(/C=C2\\C(=O)Nc3ccccc32)[nH]1", "note": "[SU-5416]", "values": [
      {"measurement": "heart rates", "setting": "[1]", "result": "within the normal range"},
      {"measurement": "dorsalization", "setting": "[2]", "result": "concentration dependent dorsalization"},
      {"measurement": "inhibition of intersegmental and subintestinal vessels sprouting (angiogenic development)", "setting": "[2]; fluorescence microscopy", "result": "suppression of angiogenic development similar to published work"}
    ]}
  ]
}
